The conditions of series [1]: animal models; cited from earlier work.
The conditions of series [2]: cited from earlier work.
Series [3] in a line: Personal experience of capsaicin use. Particulars: humans. The series is classed as in vivo.
The conditions of series [4]: cited from earlier work. The source holds these as a separate data set.

Each structure is given as a SMILES string.

Data on two compounds can be found in US20080268092A1, “Capsaicin Nutritional Supplement” (priority 2004, published 2008).

`COc1cc(CNC(=O)CCCC/C=C/C(C)C)ccc1O` [Capsaicin]: in series [1], the endurance capacity entry is on record as “increase endurance capacity” and the lipolysis entry is “promote lipolysis”. For the same compound, the solubility in water result in series [2] was “only slightly soluble in water”. In addition, in series [3], the “effects of use on energy, exercise capacity, endurance, mood, appetite, alertness” value was “boosts energy, increases exercise capacity, increases endurance, improves mood, decreases appetite and increases alertness”.
As to `Cn1c(=O)c2c(ncn2C)n(C)c1=O` [caffeine], the “mean half-life in plasma” value in series [4] (healthy individuals) is on record as “about 5 hours”. Besides, the blood-brain barrier passage entry in series [4] (in vivo) is recorded as “readily crosses the blood-brain barrier”.
